Assay results from US20080118493A1, “Elevated Hedgehog Pathway Activity In Digestive System Tumors, And Methods Of Treating Digestive Sytem Tumors Having Elevated Hedgehog Pathway Activity” (priority 2003, published 2008).

Key:
[1] = system: tumor cell lines from esophagus, stomach, biliary tract, and pancreas; assay: cells
Method: Viable cell mass was determined by optical density measurements at 490 nm (O.D.490) at 2 and 4 days using the CellTiter96® colorimetric assay (Promega; Madison Wis.). Relative growth was calculated as {OD (day 4)-OD (day 2)}/OD (day 2).

[2] = system: HuCCT1 human cholangiocarcinoma xenograft; assay: HuCCT1 xenograft treatment in athymic (nude) mice; type: in vivo; settings: 50 mg/kg/day, subcutaneous injection
[3] = system: PZp53MED1 medulloblastoma cells; settings: medulloblastoma-derived cells; cited from earlier work
Hh pathway activity [4] = assay: Hh-responsive reporter assay in first passage pancreas carcinoma xenograft cells; type: cell-based, human; settings: PTCH-expressing primary xenografts; 3.0 μM cyclopamine
Text: (§1) Cells and tissues: Origins and sources of cells and tissues are described in the Table (below). First passage pancreatic cancer xenografts were derived from freshly harvested pancreaticoduodenectomy specimens as described^14. […] After reaching 25 mm in greatest dimension, xenograft tumors were harvested, minced, and plated into tissue culture vessels in RPMI, 20% Fetal Bovine Serum (FBS) for assays as described below. The diagnosis of frozen samples from gastric and pancreatic adenocarcinoma resections and adjacent normal stomach and pancreas was microscopically confirmed by two pathologists, and RNA was prepared as described^14.
(§2) Hh-responsive reporter assays: Hh-responsive firefly luciferase and control SV-40 Renilla luciferase reporter assays were performed on subconfluent triplicate cultures as described^22.

[5] = system: PZp53MED1 medulloblastoma cells; assay: Proliferation assay in medulloblastoma cells; type: cell-based; settings: medulloblastoma cells from a mouse model of Gorlin syndrome, loss of PTCH function
Hh pathway activity [6] = assay: Hh-inducible reporter assay in HuCCT1 cholangiocarcinoma cells; type: cell-based, human; settings: purified SHH ligand to 25 nM
Method: as §2

[7] = system: single passage pancreatic cancer xenograft cells; assay: Proliferation (MTS) assay in first passage pancreatic cancer xenograft cells; type: cell-based, human
Text: as §1

Compound: CC1=C2C[C@H]3[C@@H](CC=C4C[C@@H](O)CC[C@@]43C)[C@@H]2CC[C@]12O[C@@H]1C[C@H](C)CN[C@H]1[C@H]2C [cyclopamine]
- significant growth inhibition, dependence on PTCH mRNA expression ([1]; 3.0 μM cyclopamine, MTS assay): only in tumor lines expressing PTCH mRNA
- inhibition at 3 µM ([1]; Homo sapiens, read-out: growth inhibition): 75 to 95%
- survival and adverse reactions ([2]; daily): all mice survived cyclopamine treatment without obvious adverse reactions
- tumor regression (xenograft tumor volume) ([2]; within 14 days, tumors grown to 180 mm^3, n=9): Complete or near complete regression of all nine treated tumors
- cell killing [3]: can be killed by cyclopamine treatment
- GLI reporter expression (Hh pathway activity [4]): cyclopamine-sensitive

Compound: SHH ligand: recombinant doubly lipid modified Sonic hedgehog (ShhNp) peptide
- change in growth [5]: No significant ligand-induced or antibody-induced change in growth
- augmentation of reporter activity (Hh pathway activity [6]): approximately 8 fold
- growth as a function of added SHH concentration ([7]; PX184 cells with 5E1 at a level just sufficient to block growth (0.1 μg/ml)): Growth correlated positively with increasing concentrations
- growth ([7]; single passage pancreatic tumor xenograft that did not express PTCH mRNA (PX169)): did not significantly affect growth
